Measurements from paper PMC4515095, “Structures of the Apo and FAD-Bound Forms of 2-Hydroxybiphenyl 3-monooxygenase (HbpA) Locate Activity Hotspots Identified by Using Directed Evolution” (Chembiochem, 2015).

Experiments:
[1] = molecular target: T1, HbpA; 2-hydroxybiphenyl 3-monooxygenase (Pseudomonas nitroreducens, UniProt O06647); experiment: X-ray crystal structure, […] Å, FAD soak; format: binding; settings: crystals soaked in 1 mM FAD; flavin in the "in" position
T1 construct: full length with uncleaved N-terminal His6 tag, spacer and 3C site (21 residues longer than native); pET-YSBLIC-3C, E. coli BL21(DE3); homotetramer; tag not removed for crystals
T1 sequence (O06647 1-586): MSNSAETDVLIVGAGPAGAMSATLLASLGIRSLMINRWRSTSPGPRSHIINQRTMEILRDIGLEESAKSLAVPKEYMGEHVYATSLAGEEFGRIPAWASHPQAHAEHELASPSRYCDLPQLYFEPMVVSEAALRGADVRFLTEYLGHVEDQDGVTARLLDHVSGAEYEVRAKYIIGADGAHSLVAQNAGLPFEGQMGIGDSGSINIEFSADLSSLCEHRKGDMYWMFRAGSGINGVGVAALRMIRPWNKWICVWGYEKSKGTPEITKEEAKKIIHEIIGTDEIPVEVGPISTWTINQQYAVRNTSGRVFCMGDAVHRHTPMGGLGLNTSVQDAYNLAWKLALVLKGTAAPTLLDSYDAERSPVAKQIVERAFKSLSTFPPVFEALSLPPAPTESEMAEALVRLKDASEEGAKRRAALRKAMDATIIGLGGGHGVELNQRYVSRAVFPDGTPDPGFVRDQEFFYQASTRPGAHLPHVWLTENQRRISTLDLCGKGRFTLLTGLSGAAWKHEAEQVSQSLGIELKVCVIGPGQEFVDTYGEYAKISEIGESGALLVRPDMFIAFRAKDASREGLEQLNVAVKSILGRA

[2] = molecular target: T1, HbpA; 2-hydroxybiphenyl 3-monooxygenase; experiment: UV spectrophotometry of NADH oxidation at […] nm; format: biochemical; settings: co-substrate NADH; air-saturated buffer; read-out: WT
[3] = molecular target: 2-hydroxybiphenyl 3-monooxygenase (HbpA) from Pseudomonas azelaica HBP1 (Pseudomonas azelaica HBP1); experiment: crystal structure; P1 crystals with four molecules in the asymmetric unit (one tetramer); apo form and FAD complex (crystals soaked in 1 mM FAD); grown in 18 % PEG 3350, 0.15 M KSCN, Bis-Tris propane pH 5.5, protein 10 mg/mL

With Cc1cc2nc3c(=O)[nH]c(=O)nc-3n(C[C@H](O)[C@H](O)[C@H](O)COP(=O)(O)OP(=O)(O)OC[C@H]3O[C@@H](n4cnc5c(N)ncnc54)[C@H](O)[C@@H]3O)c2cc1C [FAD] the “X-ray crystal structure, 2.03 Å, FAD soak” value [1] was “both apo-HbpA and the FAD complex have been deposited in the Protein Data Bank”.
In the case of Oc1ccccc1-c1ccccc1 [2HBP], the Km [2] is reported as 3.3 ± 0.2 µM.
“2-hydroxybiphenyl 3-monooxygenase (HbpA) from Pseudomonas azelaica HBP1 (enzyme)” showed a stoichiometry N [3] of 4.
